What follows are molecules tested on HepG2 (assay: Antiproliferative activity against human HepG2 cells assessed as reduction in cell viability measured after 48 hrs by CCK-8 assay). Conditions: HepG2, 48 h.
Format: functional, cell-based

SMILES | IC50 [nM]
CCOP(=O)(OCC)Oc1ccc(/C=C/C(=O)O[C@@H]2[C@@]3(C(C)C)O[C@H]3[C@@H]3O[C@]34[C@]23O[C@H]3C[C@H]2C3=C(CC[C@@]24C)C(=O)OC3)cc1 | 578
COc1cc(/C=C/C(=O)O[C@@H]2[C@@]3(C(C)C)O[C@H]3[C@@H]3O[C@]34[C@]23O[C@H]3C[C@H]2C3=C(CC[C@@]24C)C(=O)OC3)cc([N+](=O)[O-])c1OC | 663
CCOP(=O)(OCC)Oc1ccc(/C=C/C(=O)O[C@@H]2[C@@]3(C(C)C)O[C@H]3[C@@H]3O[C@]34[C@]23O[C@H]3C[C@H]2C3=C(CC[C@@]24C)C(=O)OC3)cc1OC | 355
COc1cc(CCC(=O)O[C@@H]2[C@@]3(C(C)C)O[C@H]3[C@@H]3O[C@]34[C@]23O[C@H]3C[C@H]2C3=C(CC[C@@]24C)C(=O)OC3)ccc1O | 818
CC(C)[C@]12O[C@H]1[C@@H]1O[C@]13[C@]1(O[C@H]1C[C@H]1C4=C(CC[C@@]13C)C(=O)OC4)[C@@H]2OC(=O)/C=C/c1cc(Br)ccc1F | 591
COc1cc(/C=C/C(=O)O[C@@H]2[C@@]3(C(C)C)O[C@H]3[C@@H]3O[C@]34[C@]23O[C@H]3C[C@H]2C3=C(CC[C@@]24C)C(=O)OC3)ccc1OCc1ccccc1 | 1020
CC(C)[C@]12O[C@H]1[C@@H]1O[C@]13[C@]1(O[C@H]1C[C@H]1C4=C(CC[C@@]13C)C(=O)OC4)[C@@H]2OC(=O)CCc1cccnc1 | 839
COc1ccc(/C=C/C(=O)O[C@@H]2[C@@]3(C(C)C)O[C@H]3[C@@H]3O[C@]34[C@]23O[C@H]3C[C@H]2C3=C(CC[C@@]24C)C(=O)OC3)cc1OC | 686
COc1cc(/C=C/C(=O)O[C@@H]2[C@@]3(C(C)C)O[C@H]3[C@@H]3O[C@]34[C@]23O[C@H]3C[C@H]2C3=C(CC[C@@]24C)C(=O)OC3)cc(OC)c1OC | 689
CC(C)[C@]12O[C@H]1[C@@H]1O[C@]13[C@]1(O[C@H]1C[C@H]1C4=C(CC[C@@]13C)C(=O)OC4)[C@@H]2OC(=O)/C=C/c1ccccc1N1CCCCC1 | 1720
CC(C)[C@]12O[C@H]1[C@@H]1O[C@]13[C@]1(O[C@H]1C[C@H]1C4=C(CC[C@@]13C)C(=O)OC4)[C@@H]2O [TRIPTOLIDE] | 468

Next, values leading:

IC50 [nM] | SMILES
564 | CC(C)[C@]12O[C@H]1[C@@H]1O[C@]13[C@]1(O[C@H]1C[C@H]1C4=C(CC[C@@]13C)C(=O)OC4)[C@@H]2OC(=O)/C=C/c1ccc(S(C)(=O)=O)cc1
695 | CC(C)[C@]12O[C@H]1[C@@H]1O[C@]13[C@]1(O[C@H]1C[C@H]1C4=C(CC[C@@]13C)C(=O)OC4)[C@@H]2OC(=O)/C=C/c1ccc([N+](=O)[O-])cc1
654 | COc1ccc(/C=C/C(=O)O[C@@H]2[C@@]3(C(C)C)O[C@H]3[C@@H]3O[C@]34[C@]23O[C@H]3C[C@H]2C3=C(CC[C@@]24C)C(=O)OC3)cc1
696 | CC(C)[C@]12O[C@H]1[C@@H]1O[C@]13[C@]1(O[C@H]1C[C@H]1C4=C(CC[C@@]13C)C(=O)OC4)[C@@H]2OC(=O)/C=C/c1ccc(N(C)C)cc1
538 | CC(C)[C@]12O[C@H]1[C@@H]1O[C@]13[C@]1(O[C@H]1C[C@H]1C4=C(CC[C@@]13C)C(=O)OC4)[C@@H]2OC(=O)/C=C/c1cccnc1
439 | CC(C)[C@]12O[C@H]1[C@@H]1O[C@]13[C@]1(O[C@H]1C[C@H]1C4=C(CC[C@@]13C)C(=O)OC4)[C@@H]2OC(=O)/C=C/c1ccc(F)cc1
591 | CC(C)[C@]12O[C@H]1[C@@H]1O[C@]13[C@]1(O[C@H]1C[C@H]1C4=C(CC[C@@]13C)C(=O)OC4)[C@@H]2OC(=O)/C=C/c1ccc(C#N)cc1
838 | CC(C)[C@]12O[C@H]1[C@@H]1O[C@]13[C@]1(O[C@H]1C[C@H]1C4=C(CC[C@@]13C)C(=O)OC4)[C@@H]2OC(=O)/C=C/c1ccc(Br)cc1
413 | CC(C)[C@]12O[C@H]1[C@@H]1O[C@]13[C@]1(O[C@H]1C[C@H]1C4=C(CC[C@@]13C)C(=O)OC4)[C@@H]2OC(=O)/C=C/c1ccccc1
381 | CC(C)[C@]12O[C@H]1[C@@H]1O[C@]13[C@]1(O[C@H]1C[C@H]1C4=C(CC[C@@]13C)C(=O)OC4)[C@@H]2OC(=O)/C=C/c1ccccc1F
454 | CCc1ccc(/C=C/C(=O)O[C@@H]2[C@@]3(C(C)C)O[C@H]3[C@@H]3O[C@]34[C@]23O[C@H]3C[C@H]2C3=C(CC[C@@]24C)C(=O)OC3)cc1
620 | CC(C)[C@]12O[C@H]1[C@@H]1O[C@]13[C@]1(O[C@H]1C[C@H]1C4=C(CC[C@@]13C)C(=O)OC4)[C@@H]2OC(=O)/C=C/c1ccc(N2CCCCC2)cc1
783 | CC(C)[C@]12O[C@H]1[C@@H]1O[C@]13[C@]1(O[C@H]1C[C@H]1C4=C(CC[C@@]13C)C(=O)OC4)[C@@H]2OC(=O)/C=C/c1ccc(N2CCOCC2)cc1
899 | CC(C)[C@]12O[C@H]1[C@@H]1O[C@]13[C@]1(O[C@H]1C[C@H]1C4=C(CC[C@@]13C)C(=O)OC4)[C@@H]2OC(=O)/C=C/c1ccc(C(F)(F)F)cc1
